# Article PMC4206749 (Toxicological Research, 2014)
# Tests used:
# Type in all cases: cell-based
# [1] = system: Salmonella typhimurium strain TA98; assay: Bacterial reverse mutation assay
# [2] = system: Salmonella typhimurium strain TA1537; assay: Bacterial reverse mutation assay
# [3] = system: CHL cells (Chinese hamster lung fibroblast cell line); assay: In vitro chromosomal aberration assay; conditions: S9 (+), 6~18 hr; for Gap / Numerical aberrations, PP + ER / Structural aberrations, Chromatid type, ctb / Structural aberrations, Chromatid type, cte / Structural aberrations, Chromosome type, csb / Structural aberrations, Chromosome type, cse / Structural aberrations, Others: 200 cells
smiles,measurement,setting,value
"Oc1ccc(-c2ccc3cc(O)ccc3c2)c(O)c1 [HS-1793, 4-(6-hydroxy-2-naphthyl)-1,3-benzenediol]",Number of reverse mutants/plate (Mean ± SD),"[1]; TA98, with S9 activation, 78.1 μg/plate",40 ± 4 reverse mutants/plate
same,Number of reverse mutants/plate (Mean ± SD),"[1]; TA98, with S9 activation, 312.5 μg/plate",43 ± 8 reverse mutants/plate
same,Number of reverse mutants/plate (Mean ± SD),"[1]; TA98, with S9 activation, 625 μg/plate",42 ± 4 reverse mutants/plate
same,Number of reverse mutants/plate (Mean ± SD),"[1]; TA98, with S9 activation, 1,250 μg/plate",43 ± 4 reverse mutants/plate
same,Number of reverse mutants/plate (Mean ± SD),"[1]; TA98, with S9 activation, 2,500 μg/plate",44 ± 4 reverse mutants/plate
same,Number of reverse mutants/plate (Mean ± SD),"[1]; TA98, with S9 activation, 5,000 μg/plate",33 ± 2 reverse mutants/plate
same,Number of reverse mutants/plate (Mean ± SD),"[1]; TA98, without S9 activation, 78.1 μg/plate",29 ± 2 reverse mutants/plate
same,Number of reverse mutants/plate (Mean ± SD),"[1]; TA98, without S9 activation, 156.3 μg/plate",27 ± 2 reverse mutants/plate
same,Number of reverse mutants/plate (Mean ± SD),"[1]; TA98, without S9 activation, 312.5 μg/plate",30 ± 4 reverse mutants/plate
same,Number of reverse mutants/plate (Mean ± SD),"[1]; TA98, without S9 activation, 625 μg/plate",26 ± 3 reverse mutants/plate
same,Number of reverse mutants/plate (Mean ± SD),"[1]; TA98, without S9 activation, 1,250 μg/plate",25 ± 2 reverse mutants/plate
same,Number of reverse mutants/plate (Mean ± SD),"[1]; TA98, without S9 activation, 2,500 μg/plate",28 ± 1 reverse mutants/plate
same,Number of reverse mutants/plate (Mean ± SD),"[1]; TA98, without S9 activation, 5,000 μg/plate",27 ± 3 reverse mutants/plate
same,Number of reverse mutants/plate (Mean ± SD),"[2]; TA1537, with S9 activation, 78.1 μg/plate",16 ± 2 reverse mutants/plate
same,Number of reverse mutants/plate (Mean ± SD),"[2]; TA1537, with S9 activation, 156.3 μg/plate",14 ± 2 reverse mutants/plate
same,Number of reverse mutants/plate (Mean ± SD),"[2]; TA1537, with S9 activation, 312.5 μg/plate",15 ± 5 reverse mutants/plate
same,Number of reverse mutants/plate (Mean ± SD),"[2]; TA1537, with S9 activation, 625 μg/plate",14 ± 2 reverse mutants/plate
same,Number of reverse mutants/plate (Mean ± SD),"[2]; TA1537, with S9 activation, 1,250 μg/plate",14 ± 1 reverse mutants/plate
same,Number of reverse mutants/plate (Mean ± SD),"[2]; TA1537, with S9 activation, 2,500 μg/plate",16 ± 3 reverse mutants/plate
same,Number of reverse mutants/plate (Mean ± SD),"[2]; TA1537, with S9 activation, 5,000 μg/plate",15 ± 2 reverse mutants/plate
same,Number of reverse mutants/plate (Mean ± SD),"[2]; TA1537, without S9 activation, 78.1 μg/plate",14 ± 2 reverse mutants/plate
same,Number of reverse mutants/plate (Mean ± SD),"[2]; TA1537, without S9 activation, 156.3 μg/plate",17 ± 6 reverse mutants/plate
same,Number of reverse mutants/plate (Mean ± SD),"[2]; TA1537, without S9 activation, 312.5 μg/plate",13 ± 4 reverse mutants/plate
same,Number of reverse mutants/plate (Mean ± SD),"[2]; TA1537, without S9 activation, 625 μg/plate",14 ± 3 reverse mutants/plate
same,Number of reverse mutants/plate (Mean ± SD),"[2]; TA1537, without S9 activation, 1,250 μg/plate",15 ± 6 reverse mutants/plate
same,Number of reverse mutants/plate (Mean ± SD),"[2]; TA1537, without S9 activation, 2,500 μg/plate",18 ± 1 reverse mutants/plate
same,Number of reverse mutants/plate (Mean ± SD),"[2]; TA1537, without S9 activation, 5,000 μg/plate",13 ± 2 reverse mutants/plate
same,Growth index,[3]; 6.25 μg/ml,98%
same,Total frequency (+) Gap,[3]; 6.25 μg/ml,1.5%
same,Total frequency (−) Gap,[3]; 6.25 μg/ml,1%
same,Gap,[3]; 6.25 μg/ml,1
same,"Numerical aberrations, PP + ER",[3]; 6.25 μg/ml,0
same,"Structural aberrations, Chromatid type, ctb",[3]; 6.25 μg/ml,1
same,"Structural aberrations, Chromatid type, cte",[3]; 6.25 μg/ml,1
same,"Structural aberrations, Chromosome type, csb",[3]; 6.25 μg/ml,0
same,"Structural aberrations, Chromosome type, cse",[3]; 6.25 μg/ml,0
same,"Structural aberrations, Others",[3]; 6.25 μg/ml,0
same,Growth index,[3]; 12.5 μg/ml,95%
same,Total frequency (+) Gap,[3]; 12.5 μg/ml,1%
same,Total frequency (−) Gap,[3]; 12.5 μg/ml,0.5%
same,Gap,[3]; 12.5 μg/ml,1
same,"Numerical aberrations, PP + ER",[3]; 12.5 μg/ml,0
same,"Structural aberrations, Chromatid type, ctb",[3]; 12.5 μg/ml,0
same,"Structural aberrations, Chromatid type, cte",[3]; 12.5 μg/ml,1
same,"Structural aberrations, Chromosome type, csb",[3]; 12.5 μg/ml,0
same,"Structural aberrations, Chromosome type, cse",[3]; 12.5 μg/ml,0
same,"Structural aberrations, Others",[3]; 12.5 μg/ml,0
same,Growth index,[3]; 25 μg/ml,89%
same,Total frequency (+) Gap,[3]; 25 μg/ml,3.5%
same,Total frequency (−) Gap,[3]; 25 μg/ml,2.5%
same,Gap,[3]; 25 μg/ml,2
same,"Numerical aberrations, PP + ER",[3]; 25 μg/ml,0
same,"Structural aberrations, Chromatid type, ctb",[3]; 25 μg/ml,2
same,"Structural aberrations, Chromatid type, cte",[3]; 25 μg/ml,3
same,"Structural aberrations, Chromosome type, csb",[3]; 25 μg/ml,0
same,"Structural aberrations, Chromosome type, cse",[3]; 25 μg/ml,0
same,"Structural aberrations, Others",[3]; 25 μg/ml,0
same,Total frequency (+) Gap,[3]; 50 μg/ml,3%
same,Total frequency (−) Gap,[3]; 50 μg/ml,2.5%
same,Gap,[3]; 50 μg/ml,1
same,"Numerical aberrations, PP + ER",[3]; 50 μg/ml,0
same,"Structural aberrations, Chromatid type, ctb",[3]; 50 μg/ml,3
same,"Structural aberrations, Chromosome type, csb",[3]; 50 μg/ml,0
same,"Structural aberrations, Chromosome type, cse",[3]; 50 μg/ml,0
same,"Structural aberrations, Others",[3]; 50 μg/ml,0
same,Growth index,[3]; 100 μg/ml,71%
same,Total frequency (+) Gap,[3]; 100 μg/ml,1.5%
same,Total frequency (−) Gap,[3]; 100 μg/ml,0.5%
same,Gap,[3]; 100 μg/ml,2
same,"Numerical aberrations, PP + ER",[3]; 100 μg/ml,0
same,"Structural aberrations, Chromatid type, ctb",[3]; 100 μg/ml,0
same,"Structural aberrations, Chromatid type, cte",[3]; 100 μg/ml,1
same,"Structural aberrations, Chromosome type, csb",[3]; 100 μg/ml,0
same,"Structural aberrations, Chromosome type, cse",[3]; 100 μg/ml,0
